Active and inactive are the calls of the source.
Tests used:
[1] = target: UDP-galactopyranose mutase (Mycobacterium tuberculosis, UniProt P9WIQ1); test: Inhibitors of Mycobacterium tuberculosis UDP-galactopyranose mutase (UGM) enzyme Measured in Biochemical System Using Plate Reader - 2105-02_Inhibitor_Dose_CherryPick_Activity. [Related pubchem assays (depositor defined):AID504439]
[2] = target: T1, Endoribonuclease toxin MazF (Escherichia coli K-12, UniProt P0AE70); test: activation of MazEF endoribonuclease cleavage – biochemical, fluorescence, single-stranded RNA substrate, uHTS hits, dose response (AID 588481); assay type: functional
T1 sequence (P0AE70 whole entry): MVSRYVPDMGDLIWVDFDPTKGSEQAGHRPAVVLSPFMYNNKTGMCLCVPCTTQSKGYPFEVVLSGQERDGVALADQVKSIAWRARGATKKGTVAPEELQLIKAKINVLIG

[3] = target: T1, Endoribonuclease toxin MazF; test: substrate-only fluorescence increase artefacts – biochemical, single-stranded RNase substrate, counter-screen for MazEF activator project, dose response (AID 588502); assay type: functional
[4] = HEK-293T viability loss, compound-treated – cell-based, uHTS hits, cytotoxicity control for B/T-cell NF-kB inhibitor project, dose response (AID 489019); assay type: functional;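 note: IC50 reflects cytotoxicity as loss of cell viability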
Jurkat = test: blockers of NF-kB activation in T cells – Jurkat, luciferase reporter, luminescence, B- and T-cell, dose response (AID 489004); assay type: functional, cell-based; settings: Homo sapiens;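 note: NF-kB luciferase reporter Jurkat cells stimulated with PMA plus ionomycin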
HEK293 [5] = test: cells; settings: Homo sapiens
[6] = decrease of insulin promoter-GFP reporter – imaging, high-content screening, mouse beta cells (AID 1628); assay type: functional; settings: MIN6
[7] = test system: Streptococcus sp. 'group A'; test: Streptococcus pyogenes SK(-)GAS viability under kanamycin – luminescence, BacTiterGlo, confirmation, counter-screen for streptokinase expression inhibitor project, dose response (AID 1900); assay type: functional, organism-based
INS1 = test: INS-1E survival protection against cytokine death – cell-based, luminescence, retest, dose response (AID 449756); assay type: functional; settings: Rattus norvegicus, INS1;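 note: cell death triggered by IL-1 beta plus TNF-alpha plus IFN-gamma mixture; protective hits raise ATP signal compared with cytokine alone wells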
Vero [8] = test: cells; assay type: functional, cell-based; settings: Chlorocebus sabaeus
HEK293 [9] = test: cells; settings: Homo sapiens; remark: listed apart in the source
Streptococcus = test: GAS UMAA2166 growth inhibition – luminescence, BacTiterGlo, counter-screen for streptokinase expression inhibitor project, dose response (AID 1915); assay type: functional, organism-based;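 note: potency for reduction of bacterial viability or growth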
HEK293 [10] = test: EBV LMP1 TES2 canonical NF-kB signalling blockers – cell-based, HEK293, luciferase, cherry-pick, dose response (AID 588343); assay type: functional; settings: Homo sapiens
Vero [11] = test: cells; assay type: functional; settings: Chlorocebus sabaeus
[12] = MIN6 cell viability loss – mouse insulinoma, cytotoxicity control, dose response (AID 2122); assay type: functional;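 note: confirmatory high-throughput counterscreen run to flag cytotoxic compounds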
[13] = Luminescence Cell-Based Dose Retest to Confirm Inhibitors of Cancer Stem Cells. [Related pubchem assays (depositor defined):AID2717, AID2721]; assay type: functional; settings: Homo sapiens
[14] = viability loss of HMLE_sh_eGFP cells – cell-based, luminescence, counter-screen for HMLE_sh_ECad selective toxicity project, dose response (AID 463074); assay type: functional, Homo sapiens;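 note: HMLE human mammary epithelial cells expressing control shRNA against eGFP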
[15] = target: T2, Histone-lysine N-methyltransferase NSD2 (Homo sapiens, UniProt O96028); assay type: biochemical
T2 sequence (O96028 whole entry): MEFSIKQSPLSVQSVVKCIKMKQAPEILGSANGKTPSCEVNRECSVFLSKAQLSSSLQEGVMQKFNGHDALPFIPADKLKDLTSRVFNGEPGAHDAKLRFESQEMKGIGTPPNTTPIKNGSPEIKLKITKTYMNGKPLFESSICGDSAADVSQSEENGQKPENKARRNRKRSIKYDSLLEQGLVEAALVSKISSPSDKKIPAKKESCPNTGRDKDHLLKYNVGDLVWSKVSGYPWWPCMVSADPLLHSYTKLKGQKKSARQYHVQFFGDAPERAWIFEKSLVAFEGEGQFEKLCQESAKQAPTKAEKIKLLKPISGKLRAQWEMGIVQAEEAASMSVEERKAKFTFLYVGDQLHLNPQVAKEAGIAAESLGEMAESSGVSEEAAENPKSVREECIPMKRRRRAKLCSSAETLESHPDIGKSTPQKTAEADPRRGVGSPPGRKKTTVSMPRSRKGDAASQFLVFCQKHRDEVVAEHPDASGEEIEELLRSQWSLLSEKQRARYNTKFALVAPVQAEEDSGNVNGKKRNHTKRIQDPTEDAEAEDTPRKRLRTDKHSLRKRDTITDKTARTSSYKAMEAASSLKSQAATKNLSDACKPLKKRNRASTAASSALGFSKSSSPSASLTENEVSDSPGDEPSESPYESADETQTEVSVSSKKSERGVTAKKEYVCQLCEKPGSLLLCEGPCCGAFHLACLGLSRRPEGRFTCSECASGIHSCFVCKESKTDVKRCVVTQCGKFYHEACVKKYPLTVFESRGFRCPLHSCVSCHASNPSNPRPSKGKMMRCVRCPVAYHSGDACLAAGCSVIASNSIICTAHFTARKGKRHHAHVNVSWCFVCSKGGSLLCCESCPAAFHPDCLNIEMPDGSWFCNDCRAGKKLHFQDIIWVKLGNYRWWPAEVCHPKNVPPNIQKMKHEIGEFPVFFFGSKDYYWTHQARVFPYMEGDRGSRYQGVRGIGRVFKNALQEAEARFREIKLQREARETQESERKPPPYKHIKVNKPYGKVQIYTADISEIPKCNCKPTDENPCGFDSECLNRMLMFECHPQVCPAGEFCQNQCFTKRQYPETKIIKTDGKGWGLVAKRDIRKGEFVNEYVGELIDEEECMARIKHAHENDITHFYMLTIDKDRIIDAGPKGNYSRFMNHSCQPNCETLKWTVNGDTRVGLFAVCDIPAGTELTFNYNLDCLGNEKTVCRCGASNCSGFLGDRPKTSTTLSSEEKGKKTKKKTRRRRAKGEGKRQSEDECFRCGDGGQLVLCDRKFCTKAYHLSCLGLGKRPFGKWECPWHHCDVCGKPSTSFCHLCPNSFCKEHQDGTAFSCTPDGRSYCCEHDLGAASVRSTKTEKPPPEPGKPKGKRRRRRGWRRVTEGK

[16] = target: Induced myeloid leukemia cell differentiation protein Mcl-1 (Homo sapiens, UniProt Q07820); assay type: functional
[17] = viability of uninfected HEp-2 cells – cell-based, HTS, cytotoxicity control for RSV inhibitor project, dose response (AID 2410); assay type: functional; settings: human respiratory syncytial virus
[18] = target: T3, Rac GTPase-activating protein 1 (Homo sapiens, UniProt Q9H0H5); test: blockers of MgcRacGAP-driven Rac1 GTP hydrolysis – biochemical, ADP Hunter fluorescence, primary and confirmatory, confirmation (AID 624330); assay type: functional
T3 sequence (Q9H0H5 whole entry): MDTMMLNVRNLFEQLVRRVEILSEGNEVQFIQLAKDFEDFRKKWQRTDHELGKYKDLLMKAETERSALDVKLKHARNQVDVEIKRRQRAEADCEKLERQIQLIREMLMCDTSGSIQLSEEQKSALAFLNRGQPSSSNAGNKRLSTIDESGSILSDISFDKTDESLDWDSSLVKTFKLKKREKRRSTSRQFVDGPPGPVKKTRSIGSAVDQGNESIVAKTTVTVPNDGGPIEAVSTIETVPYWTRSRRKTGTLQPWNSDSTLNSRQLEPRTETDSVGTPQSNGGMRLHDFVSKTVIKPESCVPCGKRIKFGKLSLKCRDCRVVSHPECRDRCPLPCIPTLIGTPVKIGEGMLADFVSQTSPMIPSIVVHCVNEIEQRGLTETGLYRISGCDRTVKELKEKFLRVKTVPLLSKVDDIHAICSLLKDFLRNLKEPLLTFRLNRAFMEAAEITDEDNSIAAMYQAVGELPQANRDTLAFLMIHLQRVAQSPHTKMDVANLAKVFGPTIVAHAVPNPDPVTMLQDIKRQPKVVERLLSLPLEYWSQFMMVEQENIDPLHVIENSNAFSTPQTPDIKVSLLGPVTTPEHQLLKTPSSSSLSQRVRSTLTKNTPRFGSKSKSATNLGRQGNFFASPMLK

UDP-galactopyranose mutase, sequence (P9WIQ1 whole entry): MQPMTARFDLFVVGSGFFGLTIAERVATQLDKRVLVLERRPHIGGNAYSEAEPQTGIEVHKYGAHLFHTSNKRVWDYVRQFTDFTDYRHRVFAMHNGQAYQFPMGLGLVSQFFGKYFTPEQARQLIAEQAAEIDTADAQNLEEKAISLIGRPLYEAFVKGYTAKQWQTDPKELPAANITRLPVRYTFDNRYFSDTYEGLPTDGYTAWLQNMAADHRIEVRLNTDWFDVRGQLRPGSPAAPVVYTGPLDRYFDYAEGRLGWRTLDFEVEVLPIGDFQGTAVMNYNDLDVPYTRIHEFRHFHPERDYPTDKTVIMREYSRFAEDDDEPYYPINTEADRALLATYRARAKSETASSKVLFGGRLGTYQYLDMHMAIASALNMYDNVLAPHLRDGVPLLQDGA
Induced myeloid leukemia cell differentiation protein Mcl-1, sequence (Q07820 whole entry): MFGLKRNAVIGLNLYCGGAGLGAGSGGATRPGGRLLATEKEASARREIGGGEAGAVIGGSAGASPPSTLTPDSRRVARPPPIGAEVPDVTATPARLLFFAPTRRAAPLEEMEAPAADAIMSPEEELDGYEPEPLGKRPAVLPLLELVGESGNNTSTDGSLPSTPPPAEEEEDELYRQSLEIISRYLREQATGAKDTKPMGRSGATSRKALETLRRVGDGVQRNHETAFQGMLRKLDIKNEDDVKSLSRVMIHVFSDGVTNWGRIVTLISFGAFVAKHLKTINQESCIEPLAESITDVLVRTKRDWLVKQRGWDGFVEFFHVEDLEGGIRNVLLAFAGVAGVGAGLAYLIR

Q: For Oc1[nH]c2ccc(Br)cc2c1N=Nc1ccc(F)cc1, which AC50 [1] is on record?
A: Its AC50 is 91.6 µM (active).

Q: And the EC50 [2]?
A: Its EC50 is > 99 µM (inactive).

Q: And the EC50 [3]?
A: Its EC50 is 45.8 µM (inactive).

Q: What does the source list for CC(C)(O)c1[nH]c2ccc(C#N)cc2c1C(C)(C)O?
A: IC50 [4]: > 80 µM (inactive); IC50 (Jurkat): > 80 µM (inactive)

Q: Which EC50 (HEK293 [5]) does the source give for COc1ccc(O)c(/C=N/Nc2nc(Nc3ccccc3)nc(-n3nc(C)cc3C)n2)c1 here?
A: Its EC50 is > 59.6 µM (inactive).

Q: What about the IC50 [6] of the same compound?
A: The IC50 was 1.67 µM (active).

Q: And the EC50 [7]?
A: Its EC50 is 1.07 µM (active).

Q: And the AC50 (INS1)?
A: Its AC50 is 1.01 µM (active).

Q: And the IC50 (Vero [8])?
A: The IC50 was > 12.5 µM (active).

Q: And the EC50 (HEK293 [9])?
A: Its EC50 is > 59.6 µM (inactive).

Q: What about the EC50 (Streptococcus) of the same compound?
A: The EC50 was 2.16 µM (active).

Q: And the AC50 (HEK293 [10])?
A: The AC50 was 10.7 µM (active).

Q: What about the CC50 (Vero [11]) of the same compound?
A: The CC50 was 11.8 µM (active).

Q: What about the IC50 [12] of the same compound?
A: Its IC50 is 0.878 µM (active).

Q: And the AC50 [13]?
A: The AC50 was 4.75 µM (active).

Q: With COc1ccc(N=C(S)N(C)N=C(S)Nc2ccc(OC)cc2)cc1 as the compound, how does the AC50 [14] read?
A: Its AC50 is 22 µM (active).

Q: What about the AC50 [13] of the same compound?
A: Its AC50 is 16.3 µM (active).

Q: With COc1ccc(-n2c(C)ccc2-c2ccccc2)cn1 as the compound, how does the AC50 [1] read?
A: The AC50 was 58 µM (active).

Q: What about the AC50 [15] of the same compound?
A: The AC50 was > 20 µM (inactive).

Q: Which IC50 [6] does the source give for O=c1oc2ccccc2cc1-c1csc(Nc2ccc(O)cc2)n1 here?
A: The IC50 was 2.81 µM (active).

Q: What about the EC50 [2] of the same compound?
A: The EC50 was > 99 µM (inactive).

Q: What about the IC50 [16] of the same compound?
A: Its IC50 is 2.76 µM (active).

Q: What about the CC50 [17] of the same compound?
A: The CC50 was > 50 µM (active).

Q: What about the EC50 [3] of the same compound?
A: Its EC50 is > 99 µM (inactive).

Q: What about the IC50 [18] of the same compound?
A: The IC50 was 70.1 µM (active).

Q: What about the IC50 [12] of the same compound?
A: Its IC50 is 4.07 µM (active).

Q: With CCCOc1ccc(C(=O)N2CCN(c3ccc(N)cc3Cl)CC2)cc1 as the compound, how does the AC50 [14] read?
A: The AC50 was 47.8 µM (active).

Q: And the AC50 [13]?
A: Its AC50 is 10.1 µM (active).
